From ChEMBL document CHEMBL4387758, “Discovery and Biological evaluation of pyrimido[4,5-d]pyrimidine-2,4(1H,3H)-dione derivatives as potent Bruton's tyrosine kinase inhibitors” (Bioorg Med Chem, 2019)
pIC50: −log10 of the molar value.

Key:
[1] = biological target: T1, Tyrosine-protein kinase BTK (Homo sapiens, UniProt Q06187); assay: Inhibition of BTK (unknown origin) by ELISA
[2] = species: Homo sapiens; assay: Selectivity ratio of IC50 for inhibition of EGFR (unknown origin) to IC50 for inhibition of BTK (unknown origin)
[3] = tested on: TMD8; assay: Antiproliferative activity against human TMD8 cells assessed as reduction in cell viability incubated for 72 hrs by CCK-8 assay; type: functional, cell-based; conditions: TMD8, 72 h
[4] = biological target: T1, Tyrosine-protein kinase BTK; assay: Inhibition of BTK phosphorylation at Tyr223 residue in human TMD8 cells at 0.1 to 1000 nM by Western blot analysis; type: cell-based
[5] = tested on: TMD8; assay: Cell cycle arrest in BTK-dependent human TMD8 cells assessed as accumulation of cells in G1 phase at 1 uM incubated for 72 hrs by propidium iodide staining based flow cytometry; type: functional
[6] = tested on: Ramos; assay: cells; conditions: Homo sapiens, 72 h
Description: Antiproliferative activity against human Ramos cells assessed as reduction in cell viability incubated for 72 hrs by CCK-8 assay

T1 sequence (Q06187 whole entry): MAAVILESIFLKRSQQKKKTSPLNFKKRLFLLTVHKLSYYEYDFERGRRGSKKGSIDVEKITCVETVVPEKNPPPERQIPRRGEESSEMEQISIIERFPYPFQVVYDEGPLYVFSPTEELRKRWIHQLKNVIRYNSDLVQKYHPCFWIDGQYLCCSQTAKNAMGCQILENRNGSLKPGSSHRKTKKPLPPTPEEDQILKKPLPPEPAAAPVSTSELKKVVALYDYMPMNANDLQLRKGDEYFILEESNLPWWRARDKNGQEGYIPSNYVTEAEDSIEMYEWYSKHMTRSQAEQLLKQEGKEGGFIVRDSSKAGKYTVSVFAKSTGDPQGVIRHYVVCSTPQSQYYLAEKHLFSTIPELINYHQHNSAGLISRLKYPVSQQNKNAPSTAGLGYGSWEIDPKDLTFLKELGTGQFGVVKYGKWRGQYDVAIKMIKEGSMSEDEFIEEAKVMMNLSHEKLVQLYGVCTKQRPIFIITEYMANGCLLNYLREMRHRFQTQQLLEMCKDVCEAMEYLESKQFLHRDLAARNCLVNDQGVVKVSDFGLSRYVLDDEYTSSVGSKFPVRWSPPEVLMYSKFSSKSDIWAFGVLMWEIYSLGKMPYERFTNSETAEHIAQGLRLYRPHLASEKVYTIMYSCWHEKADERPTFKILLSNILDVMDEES

Row | Structure (SMILES) | pIC50 [1] | also measured
1 | C=CC(=O)Nc1cccc(-n2c(=O)n(C)c(=O)c3cnc(Nc4ccccc4)nc32)c1 | 8.21 | –
2 | C=CC(=O)Nc1cccc(-n2c(=O)n(C)c(=O)c3cnc(Nc4ccc(N5CCSCC5)cc4OC)nc32)c1 | 6.09 | –
3 | C=CC(=O)Nc1cccc(-n2c(=O)n(C)c(=O)c3cnc(Nc4ccccc4OC)nc32)c1 | 6.00 | –
4 | C=CC(=O)Nc1cccc(-n2c(=O)n(C(C)C)c(=O)c3cnc(Nc4ccc(OCCN(C)C)cc4OC)nc32)c1 | 6.46 | –
5 | C=CC(=O)Nc1cccc(-n2c(=O)n(C)c(=O)c3cnc(Nc4ccc(N5CCOCC5)cc4OC)nc32)c1 | 6.07 | –
6 | C=CC(=O)Nc1cccc(-n2c(=O)n(Cc3ccccc3)c(=O)c3cnc(Nc4ccc(N5CCC(N(C)C)CC5)cc4OC)nc32)c1 | 6.61 | Ratio IC50 [2]: 206
7 | C=CC(=O)Nc1cccc(-n2c(=O)n(CCc3ccccc3)c(=O)c3cnc(Nc4ccc(N5CCC(N(C)C)CC5)cc4OC)nc32)c1 | 7.64 | –
8 | C=CC(=O)Nc1cccc(-n2c(=O)n(CCC)c(=O)c3cnc(Nc4ccc(N5CCC(N(C)C)CC5)cc4OC)nc32)c1 | 7.52 | –
9 | C=CC(=O)Nc1cccc(-n2c(=O)n(C)c(=O)c3cnc(Nc4ccc(N5CCN(C(C)=O)CC5)cc4OC)nc32)c1 | 6.14 | –
10 | C=CC(=O)Nc1cccc(-n2c(=O)n(C(C)C)c(=O)c3cnc(Nc4ccc(N5CCN(C)CC5)c(C)c4)nc32)c1 | 9.10 | pIC50 [3]: 6.14; inhibition [4]: Dose-dependent effect; Activity [5]: 75.2%; pIC50 [6]: 5.04
11 | C=CC(=O)Nc1cccc(-n2c(=O)n(CCCc3ccccc3)c(=O)c3cnc(Nc4ccc(N5CCC(N(C)C)CC5)cc4OC)nc32)c1 | 7.12 | –
12 | C=CC(=O)Nc1cccc(-n2c(=O)n(C(C)C)c(=O)c3cnc(Nc4ccc(N(C)CCN(C)C)cc4OC)nc32)c1 | 6.01 | –

The next lines start with results.

Row | pIC50 [1] | Structure (SMILES) | also measured
13 | 6.40 | C=CC(=O)Nc1cccc(-n2c(=O)n(CC)c(=O)c3cnc(Nc4ccc(N5CCC(N(C)C)CC5)cc4OC)nc32)c1 | –
14 | 6.29 | C=CC(=O)Nc1cccc(-n2c(=O)n(C(C)C)c(=O)c3cnc(Nc4ccc(N5CCN(C)CC5)cc4OC)nc32)c1 | –
15 | 6.84 | C=CC(=O)Nc1cccc(-n2c(=O)n(C(C)C)c(=O)c3cnc(Nc4ccc(N5CCC(N6CCN(C)CC6)CC5)cc4OC)nc32)c1 | –
16 | 6.44 | C=CC(=O)Nc1cccc(-n2c(=O)n(C)c(=O)c3cnc(Nc4ccc(N5CCC(N(C)C)CC5)cc4OC)nc32)c1 | –
17 | 8.92 | C=CC(=O)Nc1cccc(-n2c(=O)n(C(C)C)c(=O)c3cnc(Nc4ccc(N5CCN(C)CC5)c(OC)c4)nc32)c1 | pIC50 [3]: 6.09; inhibition [4]: Dose-dependent effect; Activity [5]: 75.4%; pIC50 [6]: 5.02
18 | 6.44 | C=CC(=O)Nc1cccc(-n2c(=O)n(C(C)C)c(=O)c3cnc(Nc4ccc(N5CCC(N(C)C)CC5)cc4OC)nc32)c1 | –
